Results: paper PMC4627230, “Identification of TAX2 peptide as a new unpredicted anti-cancer agent” (Oncotarget, 2015)

Columns and labels:
[1] = test system: immobilized TSP-1 (thrombospondin from human platelets); experiment: ELISA binding of biotin-labeled peptides to immobilized TSP-1; settings: biotin-labeled peptide 10 μg/mL, 3 h, room temperature, 0.5% BSA; absorbance 450 nm; n = 3 in triplicate
Procedure: Microtiter plates (Nunc, ThermoFisher Scientific, Courtaboeuf, France) were coated overnight at 4°C with 0.5 μg TSP-1 in sodium carbonate-bicarbonate (BupH) buffer (Thermo Fisher Scientific). Plates were washed with PBS 0.1% BSA (Sigma-Aldrich) and non-specific sites were saturated during 30 min using 1% (w/v) BSA in BupH buffer. Biotin-labeled peptide (10 μg/mL, determined after dose-response assay from 0.01 to 100 μg/mL) was added in buffer containing 0.5% (w/v) BSA and incubated for 3 h at room temperature. Non-labeled peptide (0.001 to 5 mg/mL) was used as selective competitor. Plates were washed with PBS containing 0.1% (w/v) BSA and treated for 30 min with mouse anti-biotin antibody. Bound antibody was quantified using the mouse IgG Elite Vectastain ABC kit (Vector Laboratories) followed by incubation with 1-Step Turbo TMB substrate as a chromogen (ThermoFisher Scientific). The reaction was stopped with 0.5 M H2SO4 and absorbance was read at 450 nm.

[2] = test system: CD47; settings: ref [43]; cited from earlier work
Source text: In addition to the putative effects that may be due to CD47 association with its co-receptors, TAX2-bound TSP-1 also remains able to bind a wide variety of ligands through the other domains of the multi-modular protein. Among these domains, a central region of TSP-1 called 3TSR (three TSP-1 type 1 repeats) binds to the CD36 membrane receptor, also leading to inhibition of angiogenesis. Indeed, CD36 ligation by TSP-1 is known to induce an anti-angiogenic response by promoting CD36 association with β1 integrin and VEGFR2 dimer in a tripartite complex, resulting in decreased VEGFR2 phosphorylatio ... || Figure 7 TAX2 induces a shift in TSP-1 binding from CD47 to CD36 A. In physiological conditions, most of TSP-1-related effects on vascular function are mediated by TSP-1 carboxy terminal domain interaction with CD47 receptor. B. Under TAX2 treatment preventing TSP-1:CD47 interaction, binding of the 3TSR module of TSP-1 to CD36 receptor is promoted, thus leading to an overall anti-angiogenic response (NTD, N-terminal domain; Col, procollagen-homology domain; CBD, carboxy terminal cell binding domain). TEXT PRINTED IN THE PICTURE: (A) TSP-1: CD36: 1-10 nM; CD47: 10-100 pM DOUBTS OF THE COPYIST A ...

Row | Substance | binding to immobilized TSP-1 [1] | binding affinity for CD47 compared to CD36 [2]
1 | LSVDESKAQGIL [scrambled peptide, scrambled dodecapeptide used as a control (…), reference compound] | does not | –
2 | TSP-1: multimodular protein secreted as a disulfide-linked 450 kDa homotrimer | – | higher compared to CD36 binding
